Measurements as given in patent US9738634B2, “Heterocyclic amide compound and herbicide” (SYNGENTA PARTICIPATIONS AG, priority 2013, dated 2017).

How the values were obtained:
Format in all cases: in vivo
directly sown rice [1] = experiment: Test Example 4: foliar treatment, effect on crop; b: directly sown rice; settings: treatment dosage 315 g/ha
Outline: (§1)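 Seeds are spot-sown into sterilized diluvial soil and covered with about 1.5 cm of soil. After 14 days' greenhouse growth at 25 to 30° C, plants are sprayed on stems and leaves with diluted emulsion at the stated g/ha rate, then scored at 3 weeks.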

fig-leafed goosefoot [2] = experiment: Test Example 4: weedkilling efficacy by foliar treatment; M: fig-leafed goosefoot; settings: treatment dosage 315 g/ha
Outline: as §1

corn [3] = experiment: Test Example 3: soil treatment, effect on crop; c: corn; settings: treatment dosage 315 g/ha
Outline: (§2)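 Crop and weed responses were judged three weeks after a uniform surface spray of the water-diluted emulsion at the given g/ha rate. Seeds sat beneath about 1.5 cm of sterilized diluvial soil, and boxes stood in a greenhouse at 25 to 30° C.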

soybean [4] = experiment: Test Example 3: soil treatment, effect on crop; d: soybean; settings: treatment dosage 315 g/ha
Outline: as §2

Italian ryegrass [5] = experiment: Test Example 3: weedkilling efficacy through soil treatment; I: Italian ryegrass; settings: treatment dosage 315 g/ha
Outline: as §2

bulrush [6] = experiment: Test Example 1: weedkilling efficacy, preemergent weed treatment in the submerged state; B: bulrush; settings: treatment dosage 252 g/ha
Outline: (§3)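 Pots of alluvial soil were flooded to a 4 cm depth. Mixed weed seeds were sown and 2.5 leaf-stage rice seedlings transplanted. On sowing day, water-diluted emulsion was applied to the water surface (dose in g/ha). After 3 weeks at 25–30 °C, effects were rated.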

barnyard grass [7] = experiment: Test Example 2: weedkilling efficacy, growth period weed treatment in the submerged state; A: barnyard grass; settings: treatment dosage 252 g/ha
Outline: (§4)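 Weeds treated at the 1-2 leaf stage by application of diluted emulsion onto floodwater (4 cm depth, alluvial soil) at specified g/ha. Grown in greenhouse at 25 to 30° C; herbicidal effect rated three weeks after treatment.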

directly sown rice [8] = experiment: Test Example 3: soil treatment, effect on crop; b: directly sown rice; settings: treatment dosage 315 g/ha
Outline: as §2

redroot pigweed [9] = experiment: Test Example 4: weedkilling efficacy by foliar treatment; L: redroot pigweed; settings: treatment dosage 315 g/ha
Outline: as §1

green foxtail [10] = experiment: Test Example 4: weedkilling efficacy by foliar treatment; E: green foxtail; settings: treatment dosage 315 g/ha
Outline: as §1

redroot pigweed [11] = experiment: Test Example 3: weedkilling efficacy through soil treatment; L: redroot pigweed; settings: treatment dosage 315 g/ha
Outline: as §2

wheat [12] = experiment: Test Example 3: soil treatment, effect on crop; e: wheat; settings: treatment dosage 315 g/ha
Outline: as §2

chickweed [13] = experiment: Test Example 3: weedkilling efficacy through soil treatment; N: chickweed; settings: treatment dosage 315 g/ha
Outline: as §2

beet [14] = experiment: Test Example 3: soil treatment, effect on crop; f: beet; settings: treatment dosage 315 g/ha
Outline: as §2

oval-leafed pondweed [15] = experiment: Test Example 1: weedkilling efficacy, preemergent weed treatment in the submerged state; C: oval-leafed pondweed; settings: treatment dosage 252 g/ha
Outline: as §3

birds-eye speedwell [16] = experiment: Test Example 3: weedkilling efficacy through soil treatment; p: birds-eye speedwell; settings: treatment dosage 315 g/ha
Outline: as §2

corn [17] = experiment: Test Example 4: foliar treatment, effect on crop; c: corn; settings: treatment dosage 315 g/ha
Outline: as §1

soybean [18] = experiment: Test Example 4: foliar treatment, effect on crop; d: soybean; settings: treatment dosage 315 g/ha
Outline: as §1

transplanted rice = experiment: Test Example 1: preemergent weed treatment in the submerged state, effect on crop; a: transplanted rice; settings: treatment dosage 252 g/ha
Outline: as §3

Italian ryegrass [19] = experiment: Test Example 4: weedkilling efficacy by foliar treatment; I: Italian ryegrass; settings: treatment dosage 315 g/ha
Outline: as §1

catchweed [20] = experiment: Test Example 3: weedkilling efficacy through soil treatment; O: catchweed; settings: treatment dosage 315 g/ha
Text: Weedkilling Efficacy Test Through Soil Treatment
Sterilized diluvial soil was introduced into 21 cm long, 13 cm wide, 7 cm deep plastic boxes, and seeds of crabgrass, green foxtail, barnyard grass, wild oat, black-grass, Italian ryegrass, common wind-grass, Indian mallow, redroot pigweed, fig-leafed goosefoot, chickweed, catchweed, birds-eye speedwell, corn, soybean, rice, wheat, beet and rapeseed were each spot-sown, and covered with about 1.5 cm of soil. Next, emulsions of compounds of the present invention prepared according to compounding example 2 were diluted with water to give the specified dosages, and applied uniformly onto the soil surface with a small sprayer. The plants were grown by placing the plastic boxes in a greenhouse at 25 to 30° C., and 3 weeks after the pesticide treatment the effect on each type of plant was investigated on the basis of the assessment criteria of test example 1.
A: barnyard grass, B: bulrush, C: oval-leafed pondweed, D: crabgrass, E: green foxtail, F: barnyard grass, G: wild oat, H: black-grass, I: Italian ryegrass, J: common wind-grass, K: Indian mallow, L: redroot pigweed, M: fig-leafed goosefoot, N: chickweed, O: catchweed, p: birds-eye speedwell, a: transplanted rice, b: directly sown rice, c: corn, d: soybean, e: wheat, f: beet, g: rapeseed
Further, pesticide dosage (g/ha) indicates the concentration regulated such that treatment was with only the stated number of grams (g), when calculated per hectare (ha).

birds-eye speedwell [21] = experiment: Test Example 4: weedkilling efficacy by foliar treatment; p: birds-eye speedwell; settings: treatment dosage 315 g/ha
Outline: as §1

Indian mallow [22] = experiment: Test Example 4: weedkilling efficacy by foliar treatment; K: Indian mallow; settings: treatment dosage 315 g/ha
Outline: as §1

fig-leafed goosefoot [23] = experiment: Test Example 3: weedkilling efficacy through soil treatment; M: fig-leafed goosefoot; settings: treatment dosage 315 g/ha
Outline: as §2

barnyard grass [24] = experiment: Test Example 1: weedkilling efficacy, preemergent weed treatment in the submerged state; A: barnyard grass; settings: treatment dosage 252 g/ha
Outline: as §3

catchweed [25] = experiment: Test Example 4: weedkilling efficacy by foliar treatment; O: catchweed; settings: treatment dosage 315 g/ha
Outline: as §1

bulrush [26] = experiment: Test Example 2: weedkilling efficacy, growth period weed treatment in the submerged state; B: bulrush; settings: treatment dosage 252 g/ha
Outline: as §4

beet [27] = experiment: Test Example 4: foliar treatment, effect on crop; f: beet; settings: treatment dosage 315 g/ha
Outline: as §1

crabgrass [28] = experiment: Test Example 4: weedkilling efficacy by foliar treatment; D: crabgrass; settings: treatment dosage 315 g/ha
Outline: as §1

black-grass [29] = experiment: Test Example 4: weedkilling efficacy by foliar treatment; H: black-grass; settings: treatment dosage 315 g/ha
Outline: as §1

Indian mallow [30] = experiment: Test Example 3: weedkilling efficacy through soil treatment; K: Indian mallow; settings: treatment dosage 315 g/ha
Outline: as §2

chickweed [31] = experiment: Test Example 4: weedkilling efficacy by foliar treatment; N: chickweed; settings: treatment dosage 315 g/ha
Outline: as §1

oval-leafed pondweed [32] = experiment: Test Example 2: weedkilling efficacy, growth period weed treatment in the submerged state; C: oval-leafed pondweed; settings: treatment dosage 252 g/ha
Outline: as §4

black-grass [33] = experiment: Test Example 3: weedkilling efficacy through soil treatment; H: black-grass; settings: treatment dosage 315 g/ha
Outline: as §2

green foxtail [34] = experiment: Test Example 3: weedkilling efficacy through soil treatment; E: green foxtail; settings: treatment dosage 315 g/ha
Outline: as §2

wheat [35] = experiment: Test Example 4: foliar treatment, effect on crop; e: wheat; settings: treatment dosage 315 g/ha
Outline: as §1

crabgrass [36] = experiment: Test Example 3: weedkilling efficacy through soil treatment; D: crabgrass; settings: treatment dosage 315 g/ha
Outline: as §2

Compound: CCc1nsc(NC(=O)C(C)(C)N2COC(C)=C(c3ccccc3)C2=O)n1 [B-1-14]
- b (directly sown rice) effect on crop grade (directly sown rice [1]): 4 (weed kill ratio 70% or more, less than 90%)
- M (fig-leafed goosefoot) weedkilling efficacy grade (fig-leafed goosefoot [2]): 4 (weed kill ratio 70% or more, less than 90%)
- c (corn) effect on crop grade (corn [3]): 0 (weed kill ratio 5% or less (practically no effect))
- d (soybean) effect on crop grade (soybean [4]): 3 (weed kill ratio 40% or more, less than 70%)
- I (Italian ryegrass) weedkilling efficacy grade (Italian ryegrass [5]): 5 (weed kill ratio 90% or more, (practically complete withering))
- B (bulrush) weedkilling efficacy grade (bulrush [6]): 5 (weed kill ratio 90% or more, (practically complete withering))
- A (barnyard grass) weedkilling efficacy grade (barnyard grass [7]): 5 (weed kill ratio 90% or more, (practically complete withering))
- b (directly sown rice) effect on crop grade (directly sown rice [8]): 5 (weed kill ratio 90% or more, (practically complete withering))
- L (redroot pigweed) weedkilling efficacy grade (redroot pigweed [9]): 5 (weed kill ratio 90% or more, (practically complete withering))
- E (green foxtail) weedkilling efficacy grade (green foxtail [10]): 5 (weed kill ratio 90% or more, (practically complete withering))
- L (redroot pigweed) weedkilling efficacy grade (redroot pigweed [11]): 5 (weed kill ratio 90% or more, (practically complete withering))
- e (wheat) effect on crop grade (wheat [12]): 5 (weed kill ratio 90% or more, (practically complete withering))
- N (chickweed) weedkilling efficacy grade (chickweed [13]): 4 (weed kill ratio 70% or more, less than 90%)
- f (beet) effect on crop grade (beet [14]): 5 (weed kill ratio 90% or more, (practically complete withering))
- C (oval-leafed pondweed) weedkilling efficacy grade (oval-leafed pondweed [15]): 5 (weed kill ratio 90% or more, (practically complete withering))
- P (birds-eye speedwell) weedkilling efficacy grade (birds-eye speedwell [16]): 5 (weed kill ratio 90% or more, (practically complete withering))
- c (corn) effect on crop grade (corn [17]): 3 (weed kill ratio 40% or more, less than 70%)
- d (soybean) effect on crop grade (soybean [18]): 4 (weed kill ratio 70% or more, less than 90%)
- a (transplanted rice) effect on crop grade (transplanted rice): 1 (weed kill ratio 5% or more, less than 20%)
- I (Italian ryegrass) weedkilling efficacy grade (Italian ryegrass [19]): 5 (weed kill ratio 90% or more, (practically complete withering))
- O (catchweed) weedkilling efficacy grade (catchweed [20]): 5 (weed kill ratio 90% or more, (practically complete withering))
- P (birds-eye speedwell) weedkilling efficacy grade (birds-eye speedwell [21]): 4 (weed kill ratio 70% or more, less than 90%)
- K (Indian mallow) weedkilling efficacy grade (Indian mallow [22]): 5 (weed kill ratio 90% or more, (practically complete withering))
- M (fig-leafed goosefoot) weedkilling efficacy grade (fig-leafed goosefoot [23]): 5 (weed kill ratio 90% or more, (practically complete withering))
- A (barnyard grass) weedkilling efficacy grade (barnyard grass [24]): 5 (weed kill ratio 90% or more, (practically complete withering))
- O (catchweed) weedkilling efficacy grade (catchweed [25]): 4 (weed kill ratio 70% or more, less than 90%)
- B (bulrush) weedkilling efficacy grade (bulrush [26]): 5 (weed kill ratio 90% or more, (practically complete withering))
- f (beet) effect on crop grade (beet [27]): 5 (weed kill ratio 90% or more, (practically complete withering))
- D (crabgrass) weedkilling efficacy grade (crabgrass [28]): 5 (weed kill ratio 90% or more, (practically complete withering))
- H (black-grass) weedkilling efficacy grade (black-grass [29]): 5 (weed kill ratio 90% or more, (practically complete withering))
- K (Indian mallow) weedkilling efficacy grade (Indian mallow [30]): 3 (weed kill ratio 40% or more, less than 70%)
- N (chickweed) weedkilling efficacy grade (chickweed [31]): 4 (weed kill ratio 70% or more, less than 90%)
- C (oval-leafed pondweed) weedkilling efficacy grade (oval-leafed pondweed [32]): 5 (weed kill ratio 90% or more, (practically complete withering))
- H (black-grass) weedkilling efficacy grade (black-grass [33]): 5 (weed kill ratio 90% or more, (practically complete withering))
- E (green foxtail) weedkilling efficacy grade (green foxtail [34]): 5 (weed kill ratio 90% or more, (practically complete withering))
- e (wheat) effect on crop grade (wheat [35]): 4 (weed kill ratio 70% or more, less than 90%)
- D (crabgrass) weedkilling efficacy grade (crabgrass [36]): 5 (weed kill ratio 90% or more, (practically complete withering))
